# From patent US8278309B2, “Synthetic mimetics of host defense and uses thereof” (priority 2008, dated 2012)
# “Also recorded” adds a separate entry of the source. Structures can show the parent of a compound that is named as a salt.
# Key:
# [1] = Stability in presence of plasma and isolated hepatocytes; conditions: multiple species
# [2] = tested on: S. aureus; assay: MIC or MIC90 vs S. aureus (selectivity table); assay type: cell-based; conditions: Staphylococcus aureus; * marks MIC90
# [3] = tested on: MRSA ATCC 33591; assay: Serial passage resistance, MRSA; assay type: cell-based, S. aureus; conditions: 0.5×MIC, 17 passages
# Experimental: Frozen bacterial stocks (20 μL) of S. aureus ATCC29213 or methicillin-resistant S. aureus (MRSA ATCC 33591) were inoculated into 3 mL cation-adjusted Mueller-Hinton medium and incubated at 37° C. on a shaker platform (250 rpm) overnight. The suspension was diluted to approximately 5×10^5 cfu/mL and inoculated into a polypropylene (Costar) 96-well round bottom plate (90 μL volumes). Compound stock solutions of Compound A and norfloxacin (Sigma Aldrich, St. Louis, Mo.; Catalogue# N9890) were prepared in DMSO and serial two-fold dilutions of compound were made in 0.01% acetic acid, 0.2% bovine serum albumin directly in the wells of the polypropylene plate at 10 μL/well. Final concentrations of Compound A were 50, 25, 12.5, 6.25, 3.13, 1.56, 0.78, 0.39, 0.19, 0.098, 0.049, and 0.024 μg/mL. Final concentration ranges of norfloxacin were 100, 50, 25, 12.5, 6.25, 3.13, 1.56, 0.78, 0.39, 0.19, 0.098, and 0.049 μg/mL. […] All samples were performed in triplicate. Following a 24 hour incubation at 37° C., cell growth was assessed by observing the presence of “acceptable growth”, defined by CLSI as a ≧2 mm button or definite turbidity. The MIC wells were defined as the lowest concentration where acceptable growth was not observed. For serial passage, 50 μL aliquots were taken from 2 of 3 replicate wells at 0.5×MIC and combined into 900 μL of fresh cation-adjusted Mueller-Hinton medium. The OD600 was measured and the cell suspensions were inoculated into polypropylene 96-well round bottom plates (90 μL volumes) at approximately 5×10^5 cfu/mL. Ten μL of compound stock solutions were added previously to the wells to achieve the concentration ranges for each compound described above. All samples were performed in triplicate. The plates were incubated for 24 hours at 37° C. This process was repeated for a total of 17 passages and MIC values were recorded at each passage.
# [4] = tested on: S. aureus (ATCC 13507); assay: Rat thigh burden model; assay type: in vivo; conditions: for reduction of bacterial load in comparison to inoculated controls / reduction relative to inoculum levels at 1 hour post-infection: 10 mg/kg/dose, 20 mg/kg total dose
# Experimental: For each experiment, female 8-9-week old femoral vein cannulated Crl:CD(SD) rats were made neutropenic with cyclophosphamide (150 mg/kg, i.p.) on days 4 and 1 before i.m. inoculation with S. aureus (ATCC 13507). A suspension of S. aureus was prepared from colonies obtained from an overnight culture, placed in PBS, and adjusted to approximately 10^7 cfu/mL with the aid of a spectrophotometer. Each rat was injected 0.2 mL of inoculum into the thigh muscle of the right hind leg. Thighs were harvested at 25 hours after inoculation and processed to determine cfu/thigh. Compound A was given by i.v. bolus injection into a tail vein or 1-hour i.v. infusion, or 4-hour i.v. infusion via the femoral vein cannulae at different time intervals following inoculation. Separate inoculation control groups were included in each experiment, and vancomycin groups were included as comparative agents in the first and second experiments. Each group, including the controls and comparative agent, consisted of 4 rats.
# [5] = tested on: MRSA 33591; assay: Mouse thigh burden model against MRSA 33591; assay type: in vivo
# [6] = tested on: MSSA 27660; assay: Mouse peritonitis/sepsis model against MSSA 27660; assay type: in vivo
# [7] = tested on: S. aureus and coagulase-negative staphylococci; assay: MICs with Staphylococcus species with defined resistance phenotypes; assay type: cell-based; conditions: for MIC range: in µg/mL
# Experimental: Evaluation of the susceptibility profiles of Compound A against selected isolates was carried out in vitro by broth microdilution methodology using Mueller-Hinton broth medium according to CLSI document M7-A7. CLSI interpretive breakpoints were applied where applicable as directed by CLSI document M100-S17.
# [8] = tested on: MSSA 29213; assay: Mouse thigh burden model against MSSA 29213; assay type: in vivo
# [9] = Pharmacokinetics in rats; assay type: in vivo; conditions: Crl:CD (SD), plasma, iv; rat, 5 mg/kg, i.v. bolus
# Experimental: Crl:CD (SD) rats were administered Compound A by i.v. bolus injection at the indicated dosages. Plasma was prepared from blood samples taken at 9 time points (n=3) over 28 hours. Compound levels were determine by HPLC-MS/MS. All animals were fitted with two jugular vein cannula (JVC), one each for dose administration and blood collection. Each route of administration was dosed as N=3. Animals were supplied with a commercial rodent diet and water ad libitum. Each rat received a bolus dosed via the appropriate route of administration at time zero on the day of dosing.
# Each blood sample was collected from the rats via a JVC and placed into chilled polypropylene tubes containing sodium EDTA as an anticoagulant. Samples were centrifuged at a temperature of 4° C. and at a speed of 13,000 rpm for 5 minutes. Samples were maintained chilled throughout processing. Each plasma sample was then transferred into labeled polypropylene tubes, placed on dry ice, and stored in a freezer set to maintain −60° C. to −80° C.
# Plasma study samples were extracted and analyzed using a previously developed method. A single standard curve and six replicates of quality control samples at three concentrations were extracted using DMSO containing 0.1% formic acid. Plasma samples (50 μL) were added to 150 μL solvent and centrifuged. Supernatants were analyzed by LC/MSMS using a Perkin Elmer series 200 micropump and PE Sciex API4000 Electrospray mass spectrometer. Standard curves were prepared at concentrations of 10000, 5000, 1000, 500, 250, 100, 50 and 25 ng/mL. Quality control samples were prepared at concentrations of 5000, 500, and 50 ng/mL. The standard curve and quality control samples were prepared from independently prepared stock solutions. At least ⅝ of standards must have accuracy within ±15%, except at the LLOQ where ±20% is acceptable. Two thirds of the batch QCs must have accuracy within ±15% of nominal, and at least one QC must pass at each level in order for the run to be accepted.
# Individual plasma concentration versus time data for Compound A was subjected to non-compartmental analysis using the pharmacokinetic program WinNonlin v4.1. Plasma concentrations below the limit of quantitation (25 ng/ml) were assigned a value of zero for pharmacokinetic analysis. Nominal dosing concentrations were used in all calculations.
# [10] = in vivo; conditions: rat, iv
# Experimental: Maximum tolerated dose (MTD) determinations were made in ascending/descending dose studies in mice and rats. Compound A was administered by either i.v. bolus injection in the tail vein of mice and rats or by i.v. infusion via catheter in the femoral vein of rats. At each dose, two to three animals were administered compound and clinical signs were recorded over a 4 to 7 day period. Gross necropsy was performed at the conclusion of the study.
structure (smiles),measurement,setting,value
"N=C(N)NCCCCC(=O)Nc1cc(C(F)(F)F)cc(NC(=O)c2cc(C(=O)Nc3cc(C(F)(F)F)cc(NC(=O)CCCCNC(=N)N)c3O[C@H]3CCNC3)ncn2)c1O[C@H]1CCNC1 [Compound A, pyrimidine-4,6-dicarboxylic acid bis-{[3-(5-guanidino-pentanoylamino)-2-((R)-pyrrolidin-3-yloxy)-5-trifluoromethyl-phenyl]-amide}tetrahydrochloride]",stability in the presence of plasma and isolated hepatocytes,[1],stable
same,MIC90,[2],1 µg/mL
same,change in MIC values on serial passage,[3],did not result in any change; also recorded: no change
same,reduction of bacterial load in comparison to inoculated controls,[4]; 1 hour i.v. infusions,3.0 logs
same,reduction relative to inoculum levels at 1 hour post-infection,[4]; 1 hour i.v. infusions,~2.0 logs
same,reduction of bacterial load in comparison to inoculated controls,[4]; i.v. bolus,3.2 logs
same,reduction relative to inoculum levels at 1 hour post-infection,[4]; i.v. bolus,approximately 2.2 logs
same,efficacy relative to vancomycin,[4]; rat thigh burden,comparable to vancomycin
same,efficacy in vivo,[5],efficacious
same,efficacy in vivo,[6],efficacious
same,MIC range,"[7]; DAP-NS OXA-R, 5 isolates",0.5-2
same,MIC range,"[7]; Drug-suscept., 59 isolates",0.25-1
same,MIC range,"[7]; LZD-NS OXA-R, 5 isolates",0.5-1
same,MIC range,"[7]; OXA-R, 69 isolates",0.25-2
same,MIC90,"[7]; Staphylococcus aureus, screen of 150 Staphylococci organisms",0.5 to 2 µg/mL
same,MIC range,"[7]; VRSA/VISA DAP-NS OXA-R, 3 isolates",0.5-1
same,MIC range,"[7]; VRSA/VISA OXA-R, 7 isolates",0.5-1
same,efficacy in vivo,[8],efficacious
same,Cmax,[9],89.2 µg/mL
same,Vd,[9],0.11 L/kg
same,clearance,[9],0.467 mL/min/kg
same,half-life,[9],3 h
same,MTD,[10],> 24 mg/kg
